Legend:
[1] = target: Blk (Homo sapiens, UniProt P51451); assay: Biochemical enzymatic kinase assay, Blk
[2] = cited from earlier work
[3] = test system: Tel-tyrosine kinase (Blk) transformed Ba/F3 cells; assay: Cytotoxicity assay, Tel-Blk transformed Ba/F3 cells; conditions: cellular assay
[4] = test system: EGFR (T790M); conditions: cited from earlier work
[5] = target: Tel-wild-type Bmx transformed Ba/F3 cells (Homo sapiens, UniProt P51813); assay: Cytotoxicity assay, Tel-wild-type Bmx transformed Ba/F3 cells; format: cell-based; conditions: cellular assay
Sequence of Tel-wild-type Bmx transformed Ba/F3 cells (P41212 1-336 partner, one chain of several): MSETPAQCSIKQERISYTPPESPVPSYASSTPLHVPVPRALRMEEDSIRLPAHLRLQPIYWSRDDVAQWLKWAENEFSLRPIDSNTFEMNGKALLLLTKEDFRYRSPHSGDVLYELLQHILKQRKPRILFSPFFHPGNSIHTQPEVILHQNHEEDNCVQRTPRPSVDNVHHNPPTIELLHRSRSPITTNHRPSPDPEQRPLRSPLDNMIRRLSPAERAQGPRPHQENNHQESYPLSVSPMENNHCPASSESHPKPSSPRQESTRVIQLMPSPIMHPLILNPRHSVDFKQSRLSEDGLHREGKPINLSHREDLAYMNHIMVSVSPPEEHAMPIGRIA

[6] = target: T1, Bmx (Homo sapiens, UniProt P51813); assay: Biochemical enzymatic kinase assay, Bmx
T1 sequence (P51813 1-675): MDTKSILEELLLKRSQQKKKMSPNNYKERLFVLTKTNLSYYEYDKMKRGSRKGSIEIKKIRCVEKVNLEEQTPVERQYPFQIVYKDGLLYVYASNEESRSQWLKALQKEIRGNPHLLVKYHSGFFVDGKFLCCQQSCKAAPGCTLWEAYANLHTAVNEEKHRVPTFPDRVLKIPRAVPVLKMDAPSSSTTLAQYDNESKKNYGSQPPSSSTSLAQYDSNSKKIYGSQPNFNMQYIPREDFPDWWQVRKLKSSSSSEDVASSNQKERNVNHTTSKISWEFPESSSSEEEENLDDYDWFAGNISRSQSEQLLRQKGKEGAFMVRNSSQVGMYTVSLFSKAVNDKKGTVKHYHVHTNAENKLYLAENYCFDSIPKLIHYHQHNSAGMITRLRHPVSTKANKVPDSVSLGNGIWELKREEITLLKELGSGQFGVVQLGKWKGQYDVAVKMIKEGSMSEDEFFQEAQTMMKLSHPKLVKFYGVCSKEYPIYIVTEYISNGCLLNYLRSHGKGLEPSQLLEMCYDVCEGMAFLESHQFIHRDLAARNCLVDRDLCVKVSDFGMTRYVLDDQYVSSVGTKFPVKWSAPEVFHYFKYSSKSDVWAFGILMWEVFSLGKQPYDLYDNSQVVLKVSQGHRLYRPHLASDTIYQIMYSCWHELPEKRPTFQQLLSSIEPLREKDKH

[7] = target: Bmx kinase domain (Homo sapiens, UniProt P51813); assay: Mass spectrometry of covalent modification of recombinant Bmx kinase domain; format: binding
[8] = target: T2, full-length Flag-Bmx (Homo sapiens, UniProt P51813); conditions: 10 μM; immunoprecipitated Flag-Bmx pre-incubated with drug at 4°C for 2 hrs
T2 sequence (P51813 1-675): T1 sequence (P51813 1-675)

Sequence of Blk (P51451 whole entry, species assumed): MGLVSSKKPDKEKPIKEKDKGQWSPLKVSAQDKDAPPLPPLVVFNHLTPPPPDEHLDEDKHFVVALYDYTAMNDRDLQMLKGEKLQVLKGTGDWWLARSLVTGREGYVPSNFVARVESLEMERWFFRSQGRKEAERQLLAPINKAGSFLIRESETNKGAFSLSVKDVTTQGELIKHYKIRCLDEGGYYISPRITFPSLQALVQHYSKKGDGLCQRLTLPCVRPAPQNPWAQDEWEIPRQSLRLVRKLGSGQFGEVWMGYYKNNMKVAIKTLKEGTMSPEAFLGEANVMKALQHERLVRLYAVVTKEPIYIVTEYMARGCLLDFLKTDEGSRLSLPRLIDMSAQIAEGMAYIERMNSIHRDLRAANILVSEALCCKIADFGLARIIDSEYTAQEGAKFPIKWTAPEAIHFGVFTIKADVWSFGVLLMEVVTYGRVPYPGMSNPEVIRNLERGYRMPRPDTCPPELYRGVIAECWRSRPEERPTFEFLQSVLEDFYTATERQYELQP

In the case of `C=CC(=O)Nc1cc2c(Nc3ccc(F)c(Cl)c3)ncnc2cc1OCCCN1CCOCC1` [CI-1033], the “inhibitory activity against Blk” value [1] is given as “potent inhibitory activity”, the “toxicity in clinical phase II study” value [2] is given as “severe toxicity” and the “inhibitory activity against Blk” value [3] is given as “potent inhibitory activity”.

In the case of `CCOc1cc2ncc(C#N)c(Nc3ccc(F)c(Cl)c3)c2cc1NC(=O)/C=C/CN(C)C` [EKB-569], the “inhibition of EGFR (T790M)” value [4] is listed as “strongly inhibit”.

In the case of `C=CC(=O)Nc1ccc2ncnc(Nc3cccc(Br)c3)c2c1` [PD168393], the “inhibitory activity against Bmx” value [5] was “only moderate potency”, the “inhibitory activity against Bmx” value [6] was “only moderate potency” and the site of modification ([7]; chymotryptic peptide ISNGCLL, tandem MS) was “modification of cysteine 496”. For the same molecule, the “mass increase of Bmx kinase domain after incubation with inhibitor” value ([7]; consistent with covalent addition of a single inhibitor molecule) was 369 Da.

With `C#Cc1cccc(Nc2ncnc3cc(OCCOC)c(OCCOC)cc23)c1` [erlotinib] the “in vitro autophosphorylation of Bmx (32P incorporation)” value [8] was “not affected”.

Source: paper PMC2610413 (Bioorganic & medicinal chemistry letters, 2008)
